Consider 3 compounds from US9334273B1, “Efficient and stereoselective synthesis of 2′-fluoro-6′-methylene-carbocyclic adenosine (FMCA)” (UNIVERSITY OF GEORGIA RESEARCH FOUNDATION, INC., priority 2014, dated 2016).

The test system of data set [1] is HBV wild type as well as resistant mutants. As to conditions: both wild type as well as resistant mutants; cited from earlier work.
Data set [2] deals with entecavir resistant triple mutant (L180M+M204V+S202G) HBV. The following applies: cited from earlier work; for EC50: in vitro, entecavir resistant triple mutant (L180M+M204V+S202G).

The melting point is the temperature, or range, at which the solid turns liquid. Broadly, the EC50 is the concentration giving half of the maximal effect. On to `C=C1[C@@H](n2cnc3c(N)ncnc32)C(F)C(O)[C@H]1CO` (single isomer, unassigned; (+)) [FMCA, (+)-9-[(1′R, 2′R, 3′R, 4′R)-2′-Fluoro-3′-hydroxy-4′-(hydroxymethyl)-5′-methylenecyclo-pentan-1′-yl]-adenine], for which the melting point was 215 to 218 °C (dec.). Further, the anti-HBV efficacy entry in data set [1] is given as “demonstrated the anti-HBV efficacy”. In addition, in data set [2], the EC50 is 670 nM.

`C=C1[C@H](CO)[C@@H](O)C[C@@H]1n1cnc2c(=O)[nH]c(N)nc21` [entecavir, reference compound]: the “fold less effective against the mutant in comparison to wild type” value in data set [2] (triple mutant (L180M+M204V+S202G) vs wild type) was 150 fold.

For `C=C1C(COP(=O)(N[C@@H](C)C(=O)OC)Oc2ccccc2)C(O)C(F)C1n1cnc2c(N)ncnc21` (stereo partly drawn) [FMCAP], the anti-HBV efficacy result in data set [1] is reported as “demonstrated the anti-HBV efficacy”. Also, the EC50 in data set [2] was 54 nM.
